As a reminder, the IC50 is the concentration that gives 50% inhibition.

The assay concerns the target bovine cardiac myofibrils (full-length cardiac myosin ATPase in the native sarcomere) (Bos taurus (Bovine), UniProt Q9BE39). As to the kind of experiment: Skinned bovine cardiac myofibril ATPase assay (PK/LDH-coupled). The format is biochemical. As to conditions: Ca2+ activating to 75% of maximal rate; for CDMF75 IC15: concentration giving 15% inhibition; for IC50: read-out: CDMF75 IC50. The method, boiled down: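 Triton-skinned bovine left-ventricle myofibrils (1 mg/mL) in PM 12 buffer (12 mM PIPES, 2 mM MgCl2, pH 6.8) with 50 μM ATP, 0.6 mM EGTA and CaCl2 set for 50% or 75% activation. Steady-state ATPase inhibition followed by PK/LDH-coupled NADH oxidation at 340 nm.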

Bounds are passed on as bounds.

bovine cardiac myofibrils (full-length cardiac myosin ATPase in the native sarcomere), sequence (Q9BE39 whole entry): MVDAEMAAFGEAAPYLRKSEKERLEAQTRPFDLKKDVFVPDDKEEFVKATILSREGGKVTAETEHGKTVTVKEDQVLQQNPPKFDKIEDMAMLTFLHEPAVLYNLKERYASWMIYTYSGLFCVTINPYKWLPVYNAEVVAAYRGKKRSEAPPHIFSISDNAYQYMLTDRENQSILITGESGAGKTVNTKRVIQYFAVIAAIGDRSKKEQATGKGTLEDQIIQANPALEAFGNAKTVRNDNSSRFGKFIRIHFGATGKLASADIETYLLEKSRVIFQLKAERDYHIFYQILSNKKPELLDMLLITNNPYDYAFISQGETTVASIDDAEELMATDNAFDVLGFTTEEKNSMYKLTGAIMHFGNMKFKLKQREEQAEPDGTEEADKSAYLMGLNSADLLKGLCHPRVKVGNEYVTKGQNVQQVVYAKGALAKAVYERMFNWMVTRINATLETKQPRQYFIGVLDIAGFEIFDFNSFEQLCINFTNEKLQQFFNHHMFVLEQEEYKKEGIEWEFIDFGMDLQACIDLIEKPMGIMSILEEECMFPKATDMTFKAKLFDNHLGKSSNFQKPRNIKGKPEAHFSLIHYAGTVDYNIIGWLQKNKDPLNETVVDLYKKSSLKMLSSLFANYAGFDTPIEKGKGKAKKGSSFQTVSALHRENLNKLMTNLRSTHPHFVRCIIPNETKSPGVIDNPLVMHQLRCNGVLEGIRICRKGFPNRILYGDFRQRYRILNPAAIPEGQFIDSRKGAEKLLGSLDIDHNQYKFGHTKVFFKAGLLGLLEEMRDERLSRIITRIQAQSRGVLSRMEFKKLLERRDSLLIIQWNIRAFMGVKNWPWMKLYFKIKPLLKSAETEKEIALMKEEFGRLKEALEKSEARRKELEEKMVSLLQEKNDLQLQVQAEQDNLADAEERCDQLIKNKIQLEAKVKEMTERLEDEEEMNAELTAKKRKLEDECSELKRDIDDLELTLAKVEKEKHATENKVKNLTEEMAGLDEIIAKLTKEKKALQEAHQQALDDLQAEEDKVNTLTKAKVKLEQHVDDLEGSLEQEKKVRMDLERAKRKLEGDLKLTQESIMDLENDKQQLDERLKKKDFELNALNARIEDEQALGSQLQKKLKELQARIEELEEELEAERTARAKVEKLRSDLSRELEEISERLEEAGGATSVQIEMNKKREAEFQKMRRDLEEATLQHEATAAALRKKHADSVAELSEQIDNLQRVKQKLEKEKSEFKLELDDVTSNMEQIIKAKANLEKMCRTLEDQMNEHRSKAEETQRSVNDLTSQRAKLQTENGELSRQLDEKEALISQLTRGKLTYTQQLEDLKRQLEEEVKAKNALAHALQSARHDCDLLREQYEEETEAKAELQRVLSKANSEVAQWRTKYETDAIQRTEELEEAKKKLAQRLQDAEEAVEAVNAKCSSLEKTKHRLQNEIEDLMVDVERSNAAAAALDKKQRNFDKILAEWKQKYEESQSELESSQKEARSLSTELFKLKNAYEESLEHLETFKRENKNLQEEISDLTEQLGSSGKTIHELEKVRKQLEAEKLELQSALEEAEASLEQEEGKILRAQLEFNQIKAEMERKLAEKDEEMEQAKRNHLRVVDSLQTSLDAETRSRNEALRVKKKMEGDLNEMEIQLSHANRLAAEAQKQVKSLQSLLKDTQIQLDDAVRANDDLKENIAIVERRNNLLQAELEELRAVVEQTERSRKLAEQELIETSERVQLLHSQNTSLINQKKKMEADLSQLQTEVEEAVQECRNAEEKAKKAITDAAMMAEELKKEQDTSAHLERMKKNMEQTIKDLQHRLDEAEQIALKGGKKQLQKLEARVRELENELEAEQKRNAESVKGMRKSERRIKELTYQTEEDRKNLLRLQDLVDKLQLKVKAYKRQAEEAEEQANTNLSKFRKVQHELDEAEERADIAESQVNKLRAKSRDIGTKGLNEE
bovine cardiac myofibrils (full-length cardiac myosin ATPase in the native sarcomere), sequence (P85100 whole entry partner): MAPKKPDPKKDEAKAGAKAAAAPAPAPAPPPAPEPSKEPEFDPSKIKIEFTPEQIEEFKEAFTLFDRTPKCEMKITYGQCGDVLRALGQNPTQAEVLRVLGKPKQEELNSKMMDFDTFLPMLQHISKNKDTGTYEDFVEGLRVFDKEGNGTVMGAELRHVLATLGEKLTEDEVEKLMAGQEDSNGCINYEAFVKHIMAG
bovine cardiac myofibrils (full-length cardiac myosin ATPase in the native sarcomere), sequence (Q3SZE5 whole entry partner): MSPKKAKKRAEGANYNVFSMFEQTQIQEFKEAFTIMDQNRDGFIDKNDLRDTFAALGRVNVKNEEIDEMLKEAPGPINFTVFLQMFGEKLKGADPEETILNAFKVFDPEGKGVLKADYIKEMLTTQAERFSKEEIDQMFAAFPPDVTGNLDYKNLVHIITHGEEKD

In the case of `[2H]C([2H])([2H])c1nc(-c2ccc3c(c2)CC[C@H]3NC(=O)c2c[nH]nc2C)no1` [Compound 401, (R)-3-methyl-N-(5-(5-(methyl-d3)-1,2,4-oxadiazol-3-yl)-2,3-dihydro-1H-inden-1-yl)-1H-pyrazole-4-carboxamide], the “CDMF75 IC15” value amounted to 900 nM and the IC50 was determined as 3000 nM.

As for `Cc1nc(-c2ccc3c(c2)CCC3NC(=O)Nc2ccccn2)no1` (stereo not shown) [Compound 109, 1-(5-(5-methyl-1,2,4-oxadiazol-3-yl)-2,3-dihydro-1H-inden-1-yl)-3-(pyridin-2-yl)urea], the “CDMF75 IC15” value is 1900 nM and the IC50 amounted to 7100 nM.

Consider `CCc1nc(-c2ccc3c(c2)CC[C@H]3NC(=O)c2ccccn2)no1` [Compound 623, (R)-N-(5-(5-ethyl-1,2,4-oxadiazol-3-yl)-2,3-dihydro-1H-inden-1-yl)picolinamide], for which the “CDMF75 IC15” value was 400 nM and the IC50 was determined as 1600 nM.

Turning to `CCc1nc(-c2ccc3c(c2)CC[C@H]3NC(=O)c2cnn(C3CN(C(N)=O)C3)c2)no1` [Compound 481, (R)-1-(1-carbamoylazetidin-3-yl)-N-(5-(5-ethyl-1,2,4-oxadiazol-3-yl)-2,3-dihydro-1H-inden-1-yl)-1H-pyrazole-4-carboxamide], the “CDMF75 IC15” value is 1900 nM and the IC50 stood at 7800 nM.

On to `[2H]C([2H])([2H])c1nc(-c2ccc3c(c2)OC[C@H]3NC(=O)c2ccnn2C)no1` [Compound 262, (S)-1-methyl-N-(6-(5-(methyl-d3)-1,2,4-oxadiazol-3-yl)-2,3-dihydrobenzofuran-3-yl)-1H-pyrazole-5-carboxamide], for which the “CDMF75 IC15” value was determined as 700 nM and the IC50 is 1900 nM.

With `Cc1cc(C(=O)N[C@@H]2COc3cc(-c4noc(C(F)F)n4)ccc32)n(C)n1` [Compound 191, (S)-N-(6-(5-(difluoromethyl)-1,2,4-oxadiazol-3-yl)-2,3-dihydrobenzofuran-3-yl)-1,3-dimethyl-1H-pyrazole-5-carboxamide], the “CDMF75 IC15” value was found to be 300 nM and the IC50 came to 900 nM.

In the case of `O=C(N[C@@H]1CCc2cc(-c3noc(C(F)F)n3)ccc21)c1cc(O)no1` [Compound 674, (R)-N-(5-(5-(difluoromethyl)-1,2,4-oxadiazol-3-yl)-2,3-dihydro-1H-inden-1-yl)-3-hydroxyisoxazole-5-carboxamide], the “CDMF75 IC15” value turned out to be 1900 nM and the IC50 came to 7400 nM.

As to `Cn1nccc1C(=O)NC1COc2cc(-c3noc(C(F)F)n3)ccc21` (stereo not shown) [Compound 123, N-(6-(5-(difluoromethyl)-1,2,4-oxadiazol-3-yl)-2,3-dihydrobenzofuran-3-yl)-1-methyl-1H-pyrazole-5-carboxamide], the “CDMF75 IC15” value was 500 nM and the IC50 was 1700 nM.

Take `CCc1nc(-c2ccc3c(c2)CC[C@H]3NC(=O)c2ocnc2C(F)(F)F)no1` [Compound 639, (R)-N-(5-(5-ethyl-1,2,4-oxadiazol-3-yl)-2,3-dihydro-1H-inden-1-yl)-4-(trifluoromethyl)oxazole-5-carboxamide]: the “CDMF75 IC15” value worked out at 300 nM and the IC50 amounted to 1100 nM.

Regarding `CCc1nc(-c2ccc3c(c2)CC[C@H]3NC(=O)OCC(C)C)no1` [Compound 322, isobutyl (R)-(5-(5-ethyl-1,2,4-oxadiazol-3-yl)-2,3-dihydro-1H-inden-1-yl)carbamate], the “CDMF75 IC15” value is 300 nM and the IC50 was found to be 900 nM.

`Cc1cnnc(-c2ccc3c(c2)CC[C@H]3NC(=O)c2ccnn2C)c1` [Compound 383, (R)-1-methyl-N-(5-(5-methylpyridazin-3-yl)-2,3-dihydro-1H-inden-1-yl)-1H-pyrazole-5-carboxamide]: the “CDMF75 IC15” value turned out to be 3400 nM and the IC50 is 11600 nM.

As for `Cc1nc(C)c(C(=O)NC2CCc3cc(-c4noc(C(F)F)n4)ccc32)o1` (stereo not shown) [Compound 19, N-(5-(5-(difluoromethyl)-1,2,4-oxadiazol-3-yl)-2,3-dihydro-1H-inden-1-yl)-2,4-dimethyloxazole-5-carboxamide], the “CDMF75 IC15” value is 1300 nM and the IC50 came to 4600 nM.

On to `O=C(NC1CCC1)N[C@@H]1CCc2cc(-c3noc(C(F)F)n3)ccc21` [Compound 297, (R)-1-cyclobutyl-3-(5-(5-(difluoromethyl)-1,2,4-oxadiazol-3-yl)-2,3-dihydro-1H-inden-1-yl)urea], for which the “CDMF75 IC15” value is 39200 nM and the IC50 is above 39200 nM.

Consider `CC(=O)N[C@@H]1CCc2cc(-c3noc(C)n3)ccc21` [Compound 407, (R)-N-(5-(5-methyl-1,2,4-oxadiazol-3-yl)-2,3-dihydro-1H-inden-1-yl)acetamide], for which the “CDMF75 IC15” value came to 3200 nM and the concentration for half-maximal inhibition (IC50) was determined as 13800 nM.

As for `CCc1cc(-c2ccc3c(c2)OC[C@H]3NC(=O)c2cnc(C)o2)no1` [Compound 422, (S)-N-(6-(5-ethylisoxazol-3-yl)-2,3-dihydrobenzofuran-3-yl)-2-methyloxazole-5-carboxamide], the “CDMF75 IC15” value worked out at 400 nM and the IC50 was 1500 nM.

On to `CCc1nc(-c2ccc3c(c2)CC[C@H]3NC(=O)c2ccc(=O)[nH]c2)no1` [Compound 603, (R)-N-(5-(5-ethyl-1,2,4-oxadiazol-3-yl)-2,3-dihydro-1H-inden-1-yl)-6-oxo-1,6-dihydropyridine-3-carboxamide], for which the “CDMF75 IC15” value worked out at 300 nM and the half-maximal inhibitory concentration (IC50) is 1000 nM.

In the case of `Cc1cc(-c2ccc3c(c2)OC[C@H]3NC(=O)c2cnn(C)c2)no1` [Compound 426, (S)-1-methyl-N-(6-(5-methylisoxazol-3-yl)-2,3-dihydrobenzofuran-3-yl)-1H-pyrazole-4-carboxamide], the “CDMF75 IC15” value amounted to 800 nM and the IC50 was determined as 2600 nM.

Turning to `CCc1nc(-c2ccc3c(c2)CC[C@H]3NC(=O)c2ocnc2C)no1` [Compound 386, (R)-N-(5-(5-ethyl-1,2,4-oxadiazol-3-yl)-2,3-dihydro-1H-inden-1-yl)-4-methyloxazole-5-carboxamide], the “CDMF75 IC15” value turned out to be 300 nM and the IC50 was 800 nM.

As for `Cc1cccc(-c2ccc3c(c2)CC[C@H]3NC(=O)c2ccnn2C)n1` [Compound 377, (R)-1-methyl-N-(5-(6-methylpyridin-2-yl)-2,3-dihydro-1H-inden-1-yl)-1H-pyrazole-5-carboxamide], the “CDMF75 IC15” value is 4500 nM and the IC50 was determined as 17800 nM.

Take `Cc1n[nH]cc1C(=O)N[C@@H]1CCc2cc(-c3noc(C(F)F)n3)ccc21` [Compound 71, (R)-N-(5-(5-(difluoromethyl)-1,2,4-oxadiazol-3-yl)-2,3-dihydro-1H-inden-1-yl)-3-methyl-1H-pyrazole-4-carboxamide]: the “CDMF75 IC15” value turned out to be 400 nM and the IC50 amounted to 1200 nM.

As to `COCc1nc(-c2ccc3c(c2)CC[C@H]3NC(=O)c2ccnc(C)c2)no1` [Compound 176, (R)-N-(5-(5-(methoxymethyl)-1,2,4-oxadiazol-3-yl)-2,3-dihydro-1H-inden-1-yl)-2-methylisonicotinamide], the “CDMF75 IC15” value amounted to 1200 nM and the IC50 was 4500 nM.

Turning to `CCc1nc(-c2cc(Cl)c3c(c2)CC[C@H]3NC(=O)c2cnn(C)c2)no1` [Compound 588, (R)-N-(7-chloro-5-(5-ethyl-1,2,4-oxadiazol-3-yl)-2,3-dihydro-1H-inden-1-yl)-1-methyl-1H-pyrazole-4-carboxamide], the “CDMF75 IC15” value is 1200 nM and the IC50 worked out at 4300 nM.

For `Cc1nc(-c2ccc3c(c2)CCC3NC(=O)c2cnn(C)c2C)no1` (stereo not shown) [Compound 54, 1,5-dimethyl-N-(5-(5-methyl-1,2,4-oxadiazol-3-yl)-2,3-dihydro-1H-inden-1-yl)-1H-pyrazole-4-carboxamide], the “CDMF75 IC15” value was 2200 nM and the IC50 was found to be 7800 nM.

Turning to `CCc1nc(-c2ccc3c(c2)CC[C@H]3NC(=O)c2cnc(O)o2)no1` [Compound 638, (R)-N-(5-(5-ethyl-1,2,4-oxadiazol-3-yl)-2,3-dihydro-1H-inden-1-yl)-2-hydroxyoxazole-5-carboxamide], the “CDMF75 IC15” value is 1000 nM and the IC50 was 3900 nM.

For the compound `Cn1nccc1C(=O)N[C@@H]1CCc2cc(-c3nccs3)ccc21` [Compound 370, (R)-1-methyl-N-(5-(thiazol-2-yl)-2,3-dihydro-1H-inden-1-yl)-1H-pyrazole-5-carboxamide], the “CDMF75 IC15” value came to 3800 nM and the IC50 was found to be 19100 nM.

Turning to `O=C(N[C@@H]1CCc2cc(-c3noc(C4CC4)n3)ccc21)OCC(F)F` [Compound 334, 2,2-difluoroethyl (R)-(5-(5-cyclopropyl-1,2,4-oxadiazol-3-yl)-2,3-dihydro-1H-inden-1-yl)carbamate], the “CDMF75 IC15” value is 600 nM and the IC50 came out at 1900 nM.

Take `COCc1nc(-c2ccc3c(c2)CC[C@H]3NC(=O)c2cccc(CO)c2)no1` [Compound 668, (R)-3-(hydroxymethyl)-N-(5-(5-(methoxymethyl)-1,2,4-oxadiazol-3-yl)-2,3-dihydro-1H-inden-1-yl)benzamide]: the “CDMF75 IC15” value was found to be 600 nM and the IC50 came to 2200 nM.

With `O=C(N[C@@H]1CCc2cc(-c3noc(C(F)F)n3)ccc21)OC1CCC1` [Compound 281, cyclobutyl (R)-(5-(5-(difluoromethyl)-1,2,4-oxadiazol-3-yl)-2,3-dihydro-1H-inden-1-yl)carbamate], the “CDMF75 IC15” value came to 900 nM and the IC50 was above 39200 nM.

On to `COCc1nc(-c2ccc3c(c2)CC[C@H]3NC(=O)c2cc(C(F)F)ccn2)no1` [Compound 733, (R)-4-(difluoromethyl)-N-(5-(5-(methoxymethyl)-1,2,4-oxadiazol-3-yl)-2,3-dihydro-1H-inden-1-yl)picolinamide], for which the “CDMF75 IC15” value came out at 1500 nM and the IC50 turned out to be 8900 nM.

Values taken from patent US12065436B2, “Cardiac sarcomere inhibitors” (Cytokinetics, Inc., priority 2018, dated 2024).
